Source: patent publication US12378224B2 (Dong-A Socio Holdings Co., Ltd., priority 2016, dated 2025)

Target: human MER (528-end) (Homo sapiens (Human), UniProt Q12866)
Assay: HTRF Kinase Activity Biochemical Assay (KinEASE-TK)
Conditions: 10 uM ATP
Description: For the SAR (structure-activity relationship) and compound screening, HTRF (Homogeneous Time Resolved Fluorescence) kinase activity assay was employed for all MER, AXL and TYRO3 kinases using Cisbio HTRF® KinEASE™-TK kit (Cisbio, USA). The kit includes biotin-labeled TK substrate, streptavidin-XL665, Eu3+-cryptate-labeled TK antibody and HTRF® Detection buffer. There are two main steps in the kinase assay: kinase reaction and detection of phosphorylated substrate. The reaction was carried out in white low volume 384-well plate (Corning, USA) with 25 nL compound in dimethyl sulfoxide in each well. […] Then the reaction was stopped after 1 hour incubation at room temperature by adding 5 uL of HTRF® Detection buffer which also contains 0.375 nM Eu3+-cryptate-labeled TK antibody and 0.062 uM streptavidin-XL665(SA-XL665) to allow for detection of the phosphorylated peptide product. After 1 h incubation at room temperature, the fluorescence intensity was measured with Envision™ plate reader (PerkinElmer, USA). Upon excitation at 340 nm by UV, the energy from Eu3+ donor of the antibody is transferred to the FRET acceptor XL665, and […] emits light at 665 nm. The level of kinase activity was quantified by the HTRF ratio that calculated from the intensity of emission at 665 nm and emission at 620 nm (fluorescence intensity @ 665 nm/fluorescence intensity @ 620 nm×10,000). The recombinant protein of human MER (528-end) was purchased from Carnabio, Japan. The recombinant human AXL (473-end) and TYRO3 (455-end) were purchased from SignalChem, Canada.

Sequence of human MER (528-end) (Q12866 528-999 limits assumed): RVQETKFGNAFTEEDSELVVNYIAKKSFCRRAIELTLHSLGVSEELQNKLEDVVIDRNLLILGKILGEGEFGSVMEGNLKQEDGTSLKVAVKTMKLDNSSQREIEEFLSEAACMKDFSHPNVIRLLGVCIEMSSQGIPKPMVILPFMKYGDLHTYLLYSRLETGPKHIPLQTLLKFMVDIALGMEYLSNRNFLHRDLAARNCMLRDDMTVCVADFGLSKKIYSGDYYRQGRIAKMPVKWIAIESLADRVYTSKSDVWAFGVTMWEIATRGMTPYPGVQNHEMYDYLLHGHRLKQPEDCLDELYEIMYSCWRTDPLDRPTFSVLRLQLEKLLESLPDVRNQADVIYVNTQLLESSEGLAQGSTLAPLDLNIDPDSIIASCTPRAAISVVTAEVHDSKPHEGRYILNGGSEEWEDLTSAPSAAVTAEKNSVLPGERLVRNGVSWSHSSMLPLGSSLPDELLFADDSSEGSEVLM

SMILES	IC50
Cn1cc(-c2cnc(N)c(C(=O)N[C@@H]3CCN(C(=O)c4cccc(-c5cccc(CN6CCOCC6)c5)c4)C3)c2)cn1 [Example 461, (R)-2-amino-5-(1-methyl-1H-pyrazol-4-yl)-N-(1-(3′-(morpholinomethyl)-[1,1′-biphenyl]-3-carbonyl)pyrrolidin-3-yl)nicotinamide]	> 1000 nM
Cn1cc(-c2cnc(N)c(C(=O)N[C@@H]3CCN(C(=S)Nc4cc(Cl)cc(Cl)c4)C3)c2)cn1 [Example 50, (R)-2-amino-N-(1-((3,5-dichlorophenyl)carbamothioyl)pyrrolidin-3-yl)-5-(1-methyl-1H-pyrazol-4-yl)nicotinamide]	100 to 1000 nM
Nc1ncc(-c2cnn(C3CCNCC3)c2)cc1C(=O)N[C@@H]1CCN(Cc2c(F)ccc(F)c2F)C1 [Example 162, (R)-2-amino-5-(1-(piperidin-4-yl)-1H-pyrazol-4-yl)-N-(1-(2,3,6-trifluorobenzyl)pyrrolidin-3-yl)nicotinamide]	> 1000 nM
Cc1cc(OC(=O)N2CC[C@@H](NC(=O)c3cc(-c4cnn(C)c4)cnc3N)C2)cc(C(C)C)c1 [Example 57, 3-isopropyl-5-methylphenyl (R)-3-(2-amino-5-(1-methyl-1H-pyrazol-4-yl)nicotinamido)pyrrolidine-1-carboxylate]	> 1000 nM
Cn1cc(-c2cnc(N)c(C(=O)N[C@@H]3CCN(C(=O)Oc4cccc(-c5cncc6ccccc56)c4)C3)c2)cn1 [Example 289, 3-(isoquinolin-4-yl)phenyl (R)-3-(2-amino-5-(1-methyl-1H-pyrazol-4-yl)nicotinamido)pyrrolidine-1-carboxylate]	10 to 100 nM
Cn1cc(-c2cnc(N)c(C(=O)N[C@@H]3CCN(C(=O)[C@H]4C[C@@H]4c4ccccc4)C3)c2)cn1 [Example 705, 2-amino-5-(1-methyl-1H-pyrazol-4-yl)-N—((R)-1-((1S,2S)-2-phenylcyclopropane-1-carbonyl)pyrrolidin-3-yl)nicotinamide]	> 1000 nM
Cn1cc(-c2cnc(N)c(C(=O)N[C@H]3CCN(Cc4ccccc4)C3)c2)cn1 [Example 207, (S)-2-amino-N-(1-benzylpyrrolidin-3-yl)-5-(1-methyl-1H-pyrazol-4-yl)nicotinamide]	> 1000 nM
Cn1cc(-c2cnc(N)c(C(=O)N[C@@H]3CCN(C(=O)NC4CCCCC4)C3)c2)cn1 [Example 30, (R)-2-amino-N-(1-(cyclohexylcarbamoyl)pyrrolidin-3-yl)-5-(1-methyl-1H-pyrazol-4-yl)nicotinamide]	100 to 1000 nM
CC(=O)Nc1ccc(-c2cnc(N)c(C(=O)N[C@@H]3CCN(C(=O)c4ccc(-c5ccc(F)cc5Cl)cc4)C3)c2)cn1 [Example 582, (R)-6′-acetamido-6-amino-N-(1-(2′-chloro-4′-fluoro-[1,1′-biphenyl]-4-carbonyl)pyrrolidin-3-yl)-[3,3′-bipyridine]-5-carboxamide]	100 to 1000 nM
Cn1cc(-c2cnc(N)c(C(=O)N[C@@H]3CCN(C(=O)c4ccc(-c5cc(Cl)cc(Cl)c5)cc4)C3)c2)cn1 [Example 363, (R)-2-amino-N-(1-(3′,5′-dichloro-[1,1′-biphenyl]-4-carbonyl)pyrrolidin-3-yl)-5-(1-methyl-1H-pyrazol-4-yl)nicotinamide]	100 to 1000 nM
Cn1cc(-c2cnc(N)c(C(=O)N[C@@H]3CCN(C(=O)Oc4cccc(-c5ccc(CN6CCC[C@@H]6CO)cc5)c4)C3)c2)cn1 [Example 324, 4′-(((R)-2-(hydroxymethyl)pyrrolidin-1-yl)methyl)-[1,1′-biphenyl]-3-yl (R)-3-(2-amino-5-(1-methyl-1H-pyrazol-4-yl)nicotinamido)pyrrolidine-1-carboxylate]	100 to 1000 nM
Cn1cc(-c2cnc(N)c(C(=O)N[C@@H]3CCN(CC=Cc4ccccc4)C3)c2)cn1 [Example 228, (R)-2-amino-N-(1-cinnamylpyrrolidin-3-yl)-5-(1-methyl-1H-pyrazol-4-yl)nicotinamide]	100 to 1000 nM
Cn1cc(-c2cnc(N)c(C(=O)N[C@@H]3CCN(C(=O)c4ccc(-c5cc6ccccc6s5)cc4)C3)c2)cn1 [Example 490, (R)-2-amino-N-(1-(4-(benzo[b]thiophen-2-yl)benzoyl)pyrrolidin-3-yl)-5-(1-methyl-1H-pyrazol-4-yl)nicotinamide]	> 1000 nM
Nc1ncc(-c2cnn(C3CCNCC3)c2)cc1C(=O)N[C@@H]1CCN(C(=O)Oc2cccc(-c3ccccc3)c2)C1 [Example 147, [1,1′-biphenyl]-3-yl (R)-3-(2-amino-5-(1-(piperidin-4-yl)-1H-pyrazol-4-yl)nicotinamido)pyrrolidine-1-carboxylate]	10 to 100 nM

Other lines, results leading:

IC50	SMILES
> 1000 nM	Cn1cc(-c2cnc(N)c(C(=O)N[C@@H]3CCN(C(=O)/C=C/c4ccc(CN5CCN(CCO)CC5)cc4)C3)c2)cn1 [Example 430, (R,E)-2-amino-N-(1-(3-(4-((4-(2-hydroxyethyl)piperazin-1-yl)methyl)phenyl)acryloyl)pyrrolidin-3-yl)-5-(1-methyl-1H-pyrazol-4-yl)nicotinamide]
100 to 1000 nM	Cn1cc(-c2cnc(N)c(C(=O)N[C@@H]3CCN(C(=O)Oc4ccc(Oc5ccccc5)cc4)C3)c2)cn1 [Example 102, 4-phenoxyphenyl (R)-3-(2-amino-5-(1-methyl-1H-pyrazol-4-yl)nicotinamido)pyrrolidine-1-carboxylate]
10 to 100 nM	CN(C)Cc1cccc(-c2cccc(NC(=O)N3CC[C@@H](NC(=O)c4cc(-c5cnn(C)c5)cnc4N)C3)c2)c1 [Example 265, (R)-2-amino-N-(1-((3′-((dimethylamino)methyl)-[1,1′-biphenyl]-3-yl)carbamoyl)pyrrolidin-3-yl)-5-(1-methyl-1H-pyrazol-4-yl)nicotinamide]
> 1000 nM	Cn1cc(-c2cnc(N)c(C(=O)N[C@@H]3CCN(C(=O)Oc4cc(Cl)ccc4Cl)C3)c2)cn1 [Example 61, 2,5-dichlorophenyl (R)-3-(2-amino-5-(1-methyl-1H-pyrazol-4-yl)nicotinamido)pyrrolidine-1-carboxylate]
100 to 1000 nM	Cn1cc(-c2cnc(N)c(C(=O)N[C@@H]3CCN(C(=O)Oc4cccc(Oc5ccccc5)c4)C3)c2)cn1 [Example 110, 3-phenoxyphenyl (R)-3-(2-amino-5-(1-methyl-1H-pyrazol-4-yl)nicotinamido)pyrrolidine-1-carboxylate]
> 1000 nM	Cn1cc(-c2cnc(N)c(C(=O)N[C@@H]3CCN(C(=O)Nc4cccc(-c5cnn(C6CCNCC6)c5)c4)C3)c2)cn1 [Example 260, (R)-2-amino-5-(1-methyl-1H-pyrazol-4-yl)-N-(1-((3-(1-(piperidin-4-yl)-1H-pyrazol-4-yl)phenyl)carbamoyl)pyrrolidin-3-yl)nicotinamide]
> 1000 nM	Cn1cc(-c2cnc(N)c(C(=O)N[C@@H]3CCN(C(=O)Nc4ccc(Br)cc4)C3)c2)cn1 [Example 25, (R)-2-amino-N-(1-((4-bromophenyl)carbamoyl)pyrrolidin-3-yl)-5-(1-methyl-1H-pyrazol-4-yl)nicotinamide]
> 1000 nM	Cn1cc(-c2cnc(N)c(C(=O)N[C@H]3CCN(C(=O)c4cccc(-c5ccccc5)c4)C3)c2)cn1 [Example 345, (S)—N-(1-([1,1′-biphenyl]-3-carbonyl)pyrrolidin-3-yl)-2-amino-5-(1-methyl-1H-pyrazol-4-yl)nicotinamide]
> 1000 nM	Cn1cc(-c2cnc(N)c(C(=O)N[C@@H]3CCN(C(=O)Oc4ccccc4CO)C3)c2)cn1 [Example 71, 2-(hydroxymethyl)phenyl (R)-3-(2-amino-5-(1-methyl-1H-pyrazol-4-yl)nicotinamido)pyrrolidine-1-carboxylate]
> 1000 nM	Cc1ccc(OC(=O)N2CC[C@@H](NC(=O)c3cc(-c4cnn(C)c4)cnc3N)C2)cc1C [Example 94, 3,4-dimethylphenyl (R)-3-(2-amino-5-(1-methyl-1H-pyrazol-4-yl)nicotinamido)pyrrolidine-1-carboxylate]
10 to 100 nM	Cn1cc(-c2cnc(N)c(C(=O)N[C@@H]3CCN(C(=O)c4ccc(-c5ccccc5)cc4)C3)c2)cn1 [Example 343, (R)—N-(1-([1,1′-biphenyl]-4-carbonyl)pyrrolidin-3-yl)-2-amino-5-(1-methyl-1H-pyrazol-4-yl)nicotinamide]
> 1000 nM	CN(C(=O)c1cc(-c2cnn(C)c2)cnc1N)[C@@H]1CCN(Cc2ccccc2)C1 [Example 623, (R)-2-amino-N-(1-benzylpyrrolidin-3-yl)-N-methyl-5-(1-methyl-1H-pyrazol-4-yl)nicotinamide]
100 to 1000 nM	Nc1ncc(-c2ccc(CO)cc2)cc1C(=O)N[C@@H]1CCN(Cc2ccc(Cl)cc2)C1 [Example 237, (R)-2-amino-N-(1-(4-chlorobenzyl)pyrrolidin-3-yl)-5-(4-(hydroxymethyl)phenyl)nicotinamide]
> 1000 nM	Nc1ncc(-c2cnn(C3CCNCC3)c2)cc1C(=O)N[C@@H]1CCN(Cc2ccc([N+](=O)[O-])cc2)C1 [Example 156, (R)-2-amino-N-(1-(4-nitrobenzyl)pyrrolidin-3-yl)-5-(1-(piperidin-4-yl)-1H-pyrazol-4-yl)nicotinamide]
10 to 100 nM	Cn1cc(-c2cnc(N)c(C(=O)N[C@@H]3CCN(C(=O)c4ccc(-c5ccccc5Cl)cc4)C3)c2)cn1 [Example 359, (R)-2-amino-N-(1-(2′-chloro-[1,1′-biphenyl]-4-carbonyl)pyrrolidin-3-yl)-5-(1-methyl-1H-pyrazol-4-yl)nicotinamide]
